{"source": "paper PMC8962522", "about": "“Direct interaction of TrkA/CD44v3 is essential for NGF-promoted aggressiveness of breast cancer cells” (Journal of Experimental & Clinical Cancer Research : CR, 2022)", "key": {"TrkA": {"tested_on": "TrkA", "test": "nanoDSF peptide binding to TrkA", "conditions": "nanoscale differential scanning fluorimetry, Supplementary Fig. 6A & B", "procedure": "To block the TrkA-CD44v3 association, 4 mimetic peptides of CD44v3 were designed corresponding to zone 1 [(K) STSSNTISAG], zone 2 (WEPNEENEDE), zone 3 (RDRHLSFSGSG) and zone 4 (IDDDEDFISST) (Fig. 2F & G). The binding capacities of the CD44v3 mimetic peptides to TrkA were then measured by MST (Fig. 2H). […] To confirm mimetic peptide 4 binding, we assessed its ability to bind TrkA using nanoscale differential scanning fluorimetry (nanoDSF; Supplementary Fig. 6A & B).\n(§1) Supplementary file 13046_2022_2314_MOESM3_ESM.pdf: Additional file 3: Supplementary Figure 1. Validation of the ectopic expression of CD44 and/or TrkA in COS-7 cells. The expression of all CD44 isoforms (A), CD44 variant 3 (B), CD44 variant 6 (C) and TrkA ([…]; D) was evaluated by RT–qPCR (normalized using PUM-1). No expression of CD44, CD44 variants [3 or 6] or TrkA was detected in COS-7 cells (A-D) compared with that in cells transfected with the expression plasmid carrying each protein. […] Quantification of the PLA results was performed using ImageJ software (30 randomly chosen fields per condition of three different experiments). […] CD44v3 and CD44v6 levels at the plasma membrane were assessed by flow cytometry (A-D). The plasma membrane and total TrkA and CD44v3 levels were also quantified by confocal microscopy (E-H). […] The CD44v3/NGF interaction was evaluated using microscale thermophoresis (MST). […]"}, "[1]": {"tested_on": "TrkA/CD44v6 complex in MDA-MB-231 cells", "test": "PLA TrkA/CD44v6 complex formation in MDA-MB-231 cells", "type": "cell-based", "conditions": "NGF 100 ng/ml; 30 fields per condition, three experiments", "procedure": "Cells (10,000 cells per well) were grown on acid-washed eight-well glass slides (Thermo Scientific) in the appropriate medium supplemented with 10% FBS for 24 h. After NGF treatment, paraformaldehyde (PAF)-fixed cells were incubated with 4% bovine serum albumin (BSA) or 5% FBS (for 1 h at 20 °C), followed by overnight incubation with primary antibodies (rabbit anti-TrkA or rabbit anti-IgG + mouse anti-pan-CD44; mouse anti-CD44v3; mouse anti-CD44v6; mouse anti-IgG2a; mouse anti-IgG2b; or mouse anti-IgG1). PLA was performed following the manufacturer’s instructions in the assay kit (Duolink PLA; Sigma–Aldrich). To obtain the correct representation of the PLA signal for each condition, 30 fields per condition were observed using a fluorescence microscope (Eclipse TiU; Nikon, Japan). The PLA signals (red dots) were automatically quantified using ImageJ software (with an in-house-developed plug-in). […]\nFig. 3 CD44v3 mimetic peptide 4 blocks the TrkA-CD44 association in MDA-MB-231 breast cancer cells. TrkA/CD44v3 (A) and TrkA/CD44v6 (B) complex associations were detected by the proximity ligation assay (PLA) in MDA-MB-231 breast cancer cells. […] Quantification of the PLA results was performed by ImageJ software (30 randomly chosen fields per condition of three different experiments). […]"}, "TrkA in MDA-MB-231 cells": {"tested_on": "TrkA in MDA-MB-231 cells", "test": "Immunofluorescence, membrane TrkA", "type": "cell-based", "conditions": "MDA-MB-231, immunofluorescence/confocal, NGF; \"same trend\" = as CD44v3: increased until 15 min and then decreased", "description": "The CD44v3- and CD44v6-containing isoforms expressing respectively exon 8 and 11(Fig. 1A) can interact with growth factor receptors. Using COS-7 cells with low CD44 and TrkA expression (Supplementary Fig. 1A-D), we differentially expressed TrkA and CD44s or a CD44 variant, either CD44v3 or CD44v6 (Fig. 1B, supplementary Fig. 2). […] Additionally, we evaluated the expression of TrkA and CD44v3 at the membrane level or in cells by immunofluorescence in MDA-MB-231 cells.\nas §1"}}, "data": [{"substance": "IDDDEDFISST [Peptide 4, mimetic peptide 4 (…) corresponding to the C-terminal region of CD44v3]", "values": [{"measurement": "binding to TrkA by nanoDSF (in words)", "setting": "TrkA", "result": "bound TrkA"}, {"measurement": "binding to TrkA by nanoDSF (in words)", "setting": "TrkA; listed as P4", "result": "binds to TrkA"}]}, {"substance": "NGF: recombinant human β-NGF (Alomone Labs, Israel)", "values": [{"measurement": "effect on TrkA/CD44v6 complex formation (PLA) in MDA-MB-231 cells", "setting": "[1]", "result": "did not induce TrkA/CD44v6 complex formation"}, {"measurement": "level of TrkA at the membrane (in words)", "setting": "TrkA in MDA-MB-231 cells", "result": "the membrane level of TrkA followed the same trend"}]}]}
